The target of the test is Mitogen-activated protein kinase 14 (Homo sapiens) (UniProt Q16539). Kind of test: phosphorylated p38 MAPK abundance shift – cell-based, HCT116 colorectal carcinoma, chemiluminescent western blot, counter-screen for KLF5 inhibitor project, late-stage follow-up (AID 588646). Particulars: HCT116 phospho-p38 western blot, 24 h, at 10 µM; for inhibition: measured here: phospho-p38 inhibition percent. On the technique in general: In western blotting, separated proteins are transferred to a membrane and probed.

Structures are written as SMILES. The source made the active and inactive calls.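 How the source made its calls: active means phosphorylated p38 level fell or rose by at least 30% against DMSO-treated cells; inactive means change under 30% either way.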

Sequence of Mitogen-activated protein kinase 14 (Homo sapiens) (Q16539 whole entry, looked up): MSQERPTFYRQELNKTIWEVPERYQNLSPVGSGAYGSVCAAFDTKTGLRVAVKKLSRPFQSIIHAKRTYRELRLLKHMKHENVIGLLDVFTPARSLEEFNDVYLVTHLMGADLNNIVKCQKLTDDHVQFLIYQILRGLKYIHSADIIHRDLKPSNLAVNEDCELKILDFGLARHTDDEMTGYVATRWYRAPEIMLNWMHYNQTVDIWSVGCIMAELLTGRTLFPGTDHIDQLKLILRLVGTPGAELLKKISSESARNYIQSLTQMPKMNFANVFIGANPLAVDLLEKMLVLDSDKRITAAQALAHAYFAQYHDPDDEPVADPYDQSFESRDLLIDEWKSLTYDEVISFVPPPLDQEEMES

As for `CN(C(=O)COC(=O)/C=C/c1cccc([N+](=O)[O-])c1)C1CCS(=O)(=O)C1` (stereo not given), the fold change is 2.03 and the inhibition is -103%.

In the case of `CN(C(=O)CNC(=O)/C=C/c1cccc(Cl)c1)C1CCS(=O)(=O)C1` (stereo not given), the fold change is -1.14 (inactive) and the inhibition was found to be 11.9%. `CN(C(=O)CNC(=O)/C=C/c1cccc(Cl)c1)C1CCS(=O)(=O)CC1`: the fold change is 7.64.

By inhibition is commonly meant the change of the read-out against control, counted positive when it falls.

Values taken from PubChem BioAssay AID588646 (The Scripps Research Institute Molecular Screening Center, 2011).
